Here are results for two compounds from BindingDB's records for doi:10.7270/Q2FT8P6X (n/a, 1994).

SMILES strings stand for the structures. pKi: −log10 of the molar value.

One may read the pKi as −log10 of the Ki, conventionally taken in molar units. A lower pKi goes with a high Ki.

This experiment concerns the target Leukotriene B4 receptor (Cavia porcellus). As to the kind of experiment: Negative logarithm of affinity for leukotriene B4 (LTB4) receptor on guinea pig lung membranes.

In turn, `CCc1cc(-c2ccc(N(C)C)cc2)c(O)cc1OCCCCCC(C)(C)c1nn[nH]n1` showed a pKi of 7.20.
`CCc1cc(-c2cccc(C(F)(F)F)c2)c(O)cc1OCCCCCC(C)(C)c1nn[nH]n1`: the pKi was 7.18.
